SMILES: CCn1ccc2c(Nc3ccc(Cl)cc3)nc(C#N)nc21 [Example 27, 4-[(4-Chlorophenyl)amino]-7-ethyl-7H-pyrrolo[2,3-d]pyrimidine-2-carbonitrile]
- melting point: 183 °C

From patent publication US7439240B2, “Purine-or pyrrolol[2,3-d]pyrimidine-2-carbonitiles for treating diseases associated with cysteine protease activity” (AstraZeneca AB, priority 2002, dated 2008)
